From patent publication US11174251B2, “Compositions and methods for inhibition of the JAK pathway” (Rigel Pharmaceuticals, Inc., priority 2010, dated 2021)
Structures can show the parent of a compound that is named as a salt.

Target: T1, JAK3 (Homo sapiens, UniProt P52333)
T1 construct: The Ramos B-cell line was acquired from ATCC (ATCC Catalog No. CRL-1596); host or cells: Ramos B-cell line (human)
T1 sequence (P52333 1-1124): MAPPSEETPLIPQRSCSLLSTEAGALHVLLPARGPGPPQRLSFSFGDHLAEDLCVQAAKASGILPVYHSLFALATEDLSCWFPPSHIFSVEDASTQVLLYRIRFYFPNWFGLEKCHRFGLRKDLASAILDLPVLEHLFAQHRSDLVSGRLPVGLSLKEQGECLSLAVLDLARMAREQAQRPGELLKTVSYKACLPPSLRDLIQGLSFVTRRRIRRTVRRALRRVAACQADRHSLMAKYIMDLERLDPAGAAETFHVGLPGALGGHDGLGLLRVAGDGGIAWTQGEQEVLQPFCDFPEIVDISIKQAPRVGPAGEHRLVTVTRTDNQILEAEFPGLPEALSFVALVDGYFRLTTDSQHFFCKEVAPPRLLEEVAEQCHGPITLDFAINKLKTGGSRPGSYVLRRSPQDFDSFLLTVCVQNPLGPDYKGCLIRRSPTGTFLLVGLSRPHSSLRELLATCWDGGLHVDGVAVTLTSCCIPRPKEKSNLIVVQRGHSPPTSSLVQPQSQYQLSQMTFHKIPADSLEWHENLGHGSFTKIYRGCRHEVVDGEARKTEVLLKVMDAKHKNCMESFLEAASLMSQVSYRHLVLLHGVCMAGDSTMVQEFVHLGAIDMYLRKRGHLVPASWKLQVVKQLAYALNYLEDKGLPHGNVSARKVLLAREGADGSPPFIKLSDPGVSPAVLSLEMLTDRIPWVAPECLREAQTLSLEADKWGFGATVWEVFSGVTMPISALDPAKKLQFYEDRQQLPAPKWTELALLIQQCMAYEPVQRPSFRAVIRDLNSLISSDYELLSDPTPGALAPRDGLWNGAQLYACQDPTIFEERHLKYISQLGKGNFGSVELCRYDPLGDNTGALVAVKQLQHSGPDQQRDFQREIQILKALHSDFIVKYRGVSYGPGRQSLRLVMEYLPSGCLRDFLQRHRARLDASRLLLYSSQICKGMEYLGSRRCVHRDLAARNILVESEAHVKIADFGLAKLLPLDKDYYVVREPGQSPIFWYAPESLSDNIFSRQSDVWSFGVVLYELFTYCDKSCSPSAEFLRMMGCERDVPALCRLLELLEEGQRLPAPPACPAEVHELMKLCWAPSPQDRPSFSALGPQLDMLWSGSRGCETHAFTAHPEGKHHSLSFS
Experiment: Assay for CD23 expression on Ramos B-cells stimulated by IL-4 (Table IV: ability to inhibit JAK3 activity)
Assay type: cell-based
Details: tested under conditions described in Example 3 (so in the source)
In short: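 Human Ramos B cells in RPMI with 5% serum, pre-incubated 1 h at 37 °C with compound or DMSO, then stimulated with IL-4 (final 50 units/mL) for 20–24 h. Surface CD23 upregulation measured by FACS staining as readout of JAK1/JAK3–Stat-6 signalling.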

SMILES	IC50 [nM]
COC(=O)c1cnc(Nc2ccc(C)c(N(C)C)c2)nc1Nc1ccc2oc(=O)[nH]c2c1 [Compound I-57, 2-(3-Dimethylamino-4-methyl-phenylamino)-4-(2-oxo-2,3-dihydro-benzooxazol-5-ylamino)-pyrimidine-5-carboxylic acid methyl ester trifluoroacetate salt]	> 10000
Cc1cnc(N(C)c2ccccc2)nc1Nc1ccc2oc(=O)[nH]c2c1 [Compound I-26, 5-[5-Methyl-2-(methyl-phenyl-amino)-pyrimidin-4-ylamino]-3H-benzooxazol-2-one]	500 to 5000
O=C(NC1CC1)c1ccc(Nc2ncc(F)c(Nc3ccc4oc(=O)[nH]c4c3)n2)cc1C(F)(F)F [Compound I-165, N-cyclopropyl-4-(5-fluoro-4-(2-oxo-2,3-dihydrobenzo[d]oxazol-5-ylamino)pyrimidin-2-ylamino)-2-(trifluoromethyl)benzamide formate salt]	< 500
[2H]C([2H])([2H])c1c(C)cc(Nc2ncc(C)c(Nc3ccc4oc(=O)[nH]c4c3)n2)cc1C [Compound I-35, 5-[5-Methyl-2-(3,5-dimethyl-4-d3-methyl-phenylamino)-pyrimidin-4-ylamino]-3H-benzooxazol-2-one trifluoroacetate salt]	< 500
COc1cccc(Nc2ncc(Cl)c(Nc3ccc4oc(=O)[nH]c4c3)n2)c1F [Compound I-21, 5-(5-chloro-2-(2-fluoro-3-methoxyphenylamino)pyrimidin-4-ylamino)benzo[d]oxazol-2(3H)-one trifluoroacetate salt]	< 500
Cc1cnc(Nc2cc(C)c(C)c(C)c2)nc1Nc1ccc2oc(=O)n(COP(=O)(O)O)c2c1 [Compound I-136, 5-methyl-N4-[3-(phosphonooxy)methyl-2-oxo-2,3-dihydro-1,3-benzoxazol-5-yl]-N2-(3,4,5-trimethyl)phenyl-2,4-pyrimidinediamine dipotassium salt]	500 to 5000
COc1cc(Nc2ncc(F)c(Nc3ccc4oc(=O)[nH]c4c3)n2)cc(F)c1C [Compound I-121, 5-(5-fluoro-2-(3-fluoro-5-methoxy-4-methylphenylamino)pyrimidin-4-ylamino)benzo[d]oxazol-2(3H)-one trifluoroacetate salt]	< 500
CCOc1ccc(Nc2ncc(C)c(Nc3ccc4oc(=O)[nH]c4c3)n2)c(F)c1OCC [Compound I-101, 5-(2-(3,4-diethoxy-2-fluorophenylamino)-5-methylpyrimidin-4-ylamino)benzo[d]oxazol-2(3H)-one]	< 500
Cc1cnc(Nc2cc(C)c(C(=O)OC(C)(C)C)c(C)c2)nc1Nc1ccc2oc(=O)[nH]c2c1 [Compound I-150, N2-(4-tert-butoxycarbonyl-3,5-dimethyl)phenyl-5-methyl-N4-(2-oxo-2,3-dihydro-1,3-benzoxazol-5-yl)-2,4-pyrimidinediamine]	< 500
CCN(CC)c1cc(Nc2ncc(C)c(Nc3ccc4oc(=O)[nH]c4c3)n2)cc(C)c1C [Compound I-84, 5-(2-(3-(diethylamino)-4,5-dimethylphenylamino)-5-methylpyrimidin-4-ylamino)benzo[d]oxazol-2(3H)-one formate salt]	< 500
COc1cc(Nc2ncc(F)c(Nc3ccc4oc(=O)[nH]c4c3)n2)c(F)cc1C [Compound I-123, 5-(5-fluoro-2-(2-fluoro-5-methoxy-4-methylphenylamino)pyrimidin-4-ylamino)benzo[d]oxazol-2(3H)-one trifluoroacetate salt]	5000 to 10000
CCc1ccc(Nc2ncc(C)c(Nc3ccc4oc(=O)[nH]c4c3)n2)c(F)c1OC [Compound I-68, 5-[2-(4-Ethyl-2-fluoro-3-methoxy-phenylamino)-5-methyl-pyrimidin-4-ylamino]-3H-benzooxazol-2-one trifluoroacetate salt]	< 500
Cc1cc(Nc2ncc(Cl)c(Nc3ccc4oc(=O)[nH]c4c3)n2)cc(N(C)C)c1C [Compound I-83, 5-(5-chloro-2-(3-(dimethylamino)-4,5-dimethylphenylamino)pyrimidin-4-ylamino)benzo[d]oxazol-2(3H)-one trifluoroacetate salt]	< 500
COc1cc(C)cc(Nc2ncc(F)c(Nc3cc(C)c4oc(=O)[nH]c4c3)n2)c1 [Compound I-177, 5-(2-(3-methoxy-5-methylphenylamino)-5-fluoropyrimidin-4-ylamino)-7-methylbenzo[d]oxazol-2(3H)-one trifluoroacetate salt]	> 10000
COC(=O)c1cnc(Nc2cc(C)c(C)c(OC)c2)nc1Nc1ccc2oc(=O)[nH]c2c1 [Compound I-59, 2-(3-Methoxy-4,5-dimethyl-phenylamino)-4-(2-oxo-2,3-dihydro-benzooxazol-5-ylamino)-pyrimidine-5-carboxylic acid methyl ester trifluoroacetate salt]	> 10000
Cc1ccc(Nc2ncc(F)c(Nc3ccc4oc(=O)[nH]c4c3)n2)cc1 [Compound I-202, 5-(2-(p-tolylamino)-5-fluoropyrimidin-4-ylamino)benzo[d]oxazol-2(3H)-one trifluoroacetate salt]	500 to 5000
COC(=O)c1cnc(Nc2ccc3ccccc3c2)nc1Nc1ccc2oc(=O)[nH]c2c1 [II-7, 2-(Naphthalen-2-ylamino)-4-(2-oxo-2,3-dihydro-benzooxazol-5-ylamino)-pyrimidine-5-carboxylic acid methyl ester trifluoroacetate salt]	> 10000
Cc1cc(Nc2ncc(F)c(Nc3ccc4oc(=O)[nH]c4c3)n2)cc(C)c1F [Compound I-215, N2-(3,5-dimethyl-4-fluoro)phenyl-5-fluoro-N4-(2-oxo-2,3-dihydro-1,3-benzoxazol-5-yl)-2,4-pyrimidinediamine]	< 500
COc1cc(Nc2ncc(F)c(Nc3cc(C)c4oc(=O)[nH]c4c3)n2)cc(C)c1OC [Compound I-183, 5-(2-(3,4-dimethoxy-5-methylphenylamino)-5-fluoropyrimidin-4-ylamino)-7-methylbenzo[d]oxazol-2(3H)-one trifluoroacetate salt]	< 500
Cc1cc(Nc2ncc(CO)c(Nc3ccc4oc(=O)[nH]c4c3)n2)cc(C)c1F [Compound I-79, 5-(2-(4-fluoro-3,5-dimethylphenylamino)-5-(hydroxymethyl)pyrimidin-4-ylamino)benzo[d]oxazol-2(3H)-one trifluoroacetate salt]	< 500
Cc1cc(C)nc(Nc2ncc(C)c(Nc3ccc4oc(=O)[nH]c4c3)n2)c1 [II-15, N2-(4,6-dimethylpyridin-2-yl)-5-methyl-N4-(2-oxo-2,3-dihydro-1,3-benzoxazol-5-yl)-2,4-pyrimidinediamine]	500 to 5000
Cc1cc(Nc2nc(Nc3cccc(S(C)(=O)=O)c3)ncc2F)cc2[nH]c(=O)oc12 [Compound I-172, 5-(2-(3-(methylsulfonyl)phenylamino)-5-fluoropyrimidin-4-ylamino)-7-methylbenzo[d]oxazol-2(3H)-one trifluoroacetate salt]	< 500
Cc1cnc(Nc2cccc(C#N)c2F)nc1Nc1ccc2oc(=O)[nH]c2c1 [Compound I-72, 2-fluoro-3-(5-methyl-4-(2-oxo-2,3-dihydrobenzo[d]oxazol-5-ylamino)pyrimidin-2-ylamino)benzonitrile trifluoroacetate salt]	< 500
Cc1cnc(Nc2cc(C)c(C)c(C)c2)nc1Nc1cc(CN2CCNCC2)c2oc(=O)[nH]c2c1 [Compound I-95, 5-(2-(3,4,5-trimethylphenylamino)-5-methylpyrimidin-4-ylamino)-7-((piperazin-1-yl)methyl)benzo[d]oxazol-2(3H)-one ditrifluoroacetate salt]	5000 to 10000
COc1cc(Nc2ncc(C)c(Nc3ccc4oc(=O)[nH]c4c3)n2)cc(C)c1F [Compound I-105, 5-(2-(4-fluoro-3-methoxy-5-methylphenylamino)-5-methylpyrimidin-4-ylamino)benzo[d]oxazol-2(3H)-one]	< 500
COc1cc(Nc2ncc(F)c(Nc3ccc4oc(=O)[nH]c4c3)n2)ccc1-c1ccncc1 [Compound I-207, 5-(2-(3-methoxy-4-(pyridin-4-yl)phenylamino)-5-fluoropyrimidin-4-ylamino)benzo[d]oxazol-2(3H)-one formate salt]	> 10000
